From PubChem BioAssay AID256 (DTP/NCI, 2004) come the findings set out here.

The subject of the experiment is CD2F1 mice, L1210 leukemia ip, survival T/C. Nature of the experiment: NCI In Vivo Anticancer Drug Screen. Data for tumor model L1210 Leukemia (intraperitoneal) in CD2F1 (CDF1) mice. The conditions noted are these: endpoint: mean survival time, higher = longer survival. In short, it runs like this:
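Tumor-bearing mice (transplanted tumor) were split into treated and vehicle control groups, and the measured endpoint of each treated group was divided by that of its vehicle controls.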

The mark [1] stands for this setting: dose: 100.0 mg/kg/injection, schedule: Q01DX009 (ip), vehicle: saline with Tween-80.
The mark [2] stands for this setting: dose: 200.0 mg/kg/injection, schedule: Q01DX009 (ip), vehicle: saline with Tween-80.
The mark [3] stands for this setting: dose: 100.0 mg/kg/injection, schedule: Q04DX003 (ip), vehicle: saline with Tween-80.
The mark [4] stands for this setting: dose: 200.0 mg/kg/injection, schedule: Q04DX003 (ip), vehicle: saline with Tween-80.
Where [5] appears, read: dose: 400.0 mg/kg/injection, schedule: Q04DX003 (ip), vehicle: saline with Tween-80.
Setting [6] is: dose: 400.0 mg/kg/injection, schedule: Q01DX009 (ip), vehicle: saline with Tween-80.
Where [7] appears, read: dose: 25.0 mg/kg/injection, schedule: Q04DX002 (ip), vehicle: saline with Tween-80.
Setting [8] is: dose: 50.0 mg/kg/injection, schedule: Q04DX002 (ip), vehicle: saline with Tween-80.

“And” between values parts separate entries of the source, which are not always exact repeats. Identical values can stand only once. Inconclusive results and toxic doses are left out.

For the compound `CC(=O)Nc1nnn(C)n1`, the T/C (dose: 100.0 mg/kg/injection, schedule: Q04DX003 (ip), vehicle: saline) is 103 % of control; the T/C (dose: 200.0 mg/kg/injection, schedule: Q04DX003 (ip), vehicle: saline) is 100 % of control; the T/C (dose: 400.0 mg/kg/injection, schedule: Q04DX003 (ip), vehicle: saline) is 101 % of control.
As for `Cc1ccc2nc(-c3ccc([N+](=O)[O-])cc3)oc(=O)c2c1`, the T/C by setting is: (dose: 50.0 mg/kg/injection, schedule: Q01DX009 (ip), vehicle: saline with Tween-80) 93 % of control; under setting [1], 97 % of control; under setting [2], 93 % of control.
Regarding `CC1(CC#N)CO1` (stereo not given), the T/C was 96 % of control under setting [3], 96 % of control under setting [4] and 96 % of control under setting [5].
In the case of `O=C(Nc1ccc(F)cc1)c1cccc(Cl)c1`, the T/C reads like this: under setting [1], 98 % of control; under setting [3], 94 % of control; under setting [2], 90 % of control; under setting [4], 94 % of control; under setting [6], 96 % of control; under setting [5], 95 % of control.
As for `C#CCNC1=C(C)C(=O)C2=C(C1=O)[C@H](COC(N)=O)[C@]1(OC)[C@H]3[C@@H](CN21)N3C` (stereo not given in full), the T/C was 97 % of control (dose: 3.0 mg/kg/injection, schedule: Q01DX001 (ip), vehicle: distilled water + Tween-80); 95 % of control (dose: 6.0 mg/kg/injection, schedule: Q01DX001 (ip), vehicle: distilled water + Tween-80); 101 % of control (dose: 12.0 mg/kg/injection, schedule: Q01DX001 (ip), vehicle: distilled water + Tween-80); 110 % of control (dose: 24.0 mg/kg/injection, schedule: Q01DX001 (ip), vehicle: distilled water + Tween-80); 118 % of control (dose: 48.0 mg/kg/injection, schedule: Q01DX001 (ip), vehicle: distilled water + Tween-80).
As to `Cn1cnc([N+](=O)[O-])c1[Se]c1nc(N)nc2nc[nH]c12`, the T/C runs as follows: (dose: 3.12 mg/kg/injection, schedule: Q01DX009 (ip), vehicle: water) 111 % of control; (dose: 6.25 mg/kg/injection, schedule: Q01DX009 (ip), vehicle: water) 124 % of control; (dose: 7.3 mg/kg/injection, schedule: Q01DX005 (ip), vehicle: water) 121 % of control; (dose: 25.0 mg/kg/injection, schedule: Q01DX005 (ip), vehicle: water) 153 % of control; (dose: 25.0 mg/kg/injection, schedule: Q01DX009 (ip), vehicle: water) 160 % of control; (dose: 37.5 mg/kg/injection, schedule: Q01DX005 (ip), vehicle: water) 178 % of control. Further, for the setting “dose: 50.0 mg/kg/injection, schedule: Q01DX009 (ip), vehicle: water”, the T/C is 151 % of control.
Consider `CC(=O)Nc1nc(Br)c2ccccc2c1-c1ccc(N(CCO)CCO)cc1`, for which the T/C is 90 % of control (dose: 25.0 mg/kg/injection, schedule: Q04DX003 (ip), vehicle: DMSO); 90 % of control (dose: 50.0 mg/kg/injection, schedule: Q04DX003 (ip), vehicle: DMSO); 94 % of control (dose: 100.0 mg/kg/injection, schedule: Q04DX003 (ip), vehicle: DMSO); 87 % of control (dose: 200.0 mg/kg/injection, schedule: Q04DX003 (ip), vehicle: DMSO).
`COC(=O)CCCCCCCCO`: the T/C runs as follows: under setting [1], 109 % of control; under setting [3], 97 % of control; under setting [2], 101 % of control; under setting [4], 95 % of control; under setting [6], 104 % of control; under setting [5], 90 % of control.
`CCC(C)C1NC(=O)C(NC(=O)c2c3nc4c(C(=O)NC5C(=O)NC(C(C)CC)C(=O)N6CCCC6C(=O)N(C)CC(=O)N(C)C(C(C)C)C(=O)OC5C)cc(N)c(C)c4oc-3c(C)c(=O)c2N)C(C)OC(=O)C(C(C)C)N(C)C(=O)CN(C)C(=O)C2CCCN2C1=O` (stereo not given): the T/C is 116 % of control (dose: 25.0 micrograms/kg/injection, schedule: Q01DX009 (ip), vehicle: water) and 121 % of control (dose: 50.0 micrograms/kg/injection, schedule: Q01DX009 (ip), vehicle: water).
`NC(Cc1c[nH]c2ccc(N(CCCl)CCCl)cc12)C(=O)O` (stereo not given): the T/C reads like this: (dose: 0.5 mg/kg/injection, schedule: Q01DX010 (ip), vehicle: saline) 150 % of control; (dose: 1.0 mg/kg/injection, schedule: Q01DX010 (ip), vehicle: saline) 160 % of control; (dose: 2.0 mg/kg/injection, schedule: Q01DX010 (ip), vehicle: saline) 208 % of control.
Regarding `Cc1c(NCO)c(=O)n(-c2ccccc2)n1C`, the T/C (dose: 100.0 mg/kg/injection, schedule: Q01DX009 (ip), vehicle: saline) is 94 % of control; the T/C (dose: 200.0 mg/kg/injection, schedule: Q01DX009 (ip), vehicle: saline) is 89 % of control; the T/C (dose: 400.0 mg/kg/injection, schedule: Q01DX009 (ip), vehicle: saline) was 105 % of control.
Regarding `CN(Cc1cnc2nc(N)nc(N)c2n1)c1ccc(C(=O)NC(CCC(=O)O)C(=O)NC(CCC(=O)O)C(=O)O)cc1` (stereo not given), the T/C is 105 % of control (dose: 1.0 mg/kg/injection, schedule: Q01DX009 (ip), vehicle: sodium bicarbonate); 100 % of control (dose: 2.0 mg/kg/injection, schedule: Q01DX009 (ip), vehicle: sodium bicarbonate); 102 % of control (dose: 5.0 mg/kg/injection, schedule: Q01DX009 (ip), vehicle: sodium bicarbonate); 167 % of control (dose: 25.0 mg/kg/injection, schedule: Q01DX009 (ip), vehicle: sodium bicarbonate).
On to `CCCCCCCCCCCCCCCC[N+](C)(C)C`, for which the T/C runs as follows: (dose: 1.25 mg/kg/injection, schedule: Q01DX009 (ip), vehicle: saline with Tween-80) 96 % of control; (dose: 2.5 mg/kg/injection, schedule: Q01DX009 (ip), vehicle: saline with Tween-80) 98 % of control; (dose: 5.0 mg/kg/injection, schedule: Q01DX009 (ip), vehicle: saline with Tween-80) 94 % of control and 97 % of control; (dose: 5.0 mg/kg/injection, schedule: Q04DX003 (ip), vehicle: saline) 96 % of control; (dose: 10.0 mg/kg/injection, schedule: Q04DX003 (ip), vehicle: saline) 98 % of control; (dose: 20.0 mg/kg/injection, schedule: Q04DX003 (ip), vehicle: saline) 95 % of control.
Consider `O=C1C=C/C(=N\N=C2/C=CC(=O)O2)O1`, for which the T/C under setting [7] is 100 % of control and the T/C under setting [8] was 91 % of control.
In the case of `CCC(=O)OC(=N)C(=N)OC(=O)CC`, the T/C was 98 % of control under setting [7]; 98 % of control under setting [8]; 98 % of control (dose: 100.0 mg/kg/injection, schedule: Q04DX002 (ip), vehicle: saline with Tween-80); 95 % of control (dose: 200.0 mg/kg/injection, schedule: Q04DX002 (ip), vehicle: saline with Tween-80).
Turning to `O=P(Oc1ccccc1)(c1ccccc1)c1ccccc1`, the T/C was 109 % of control under setting [3], 95 % of control under setting [4] and 109 % of control under setting [5].
For the compound `Nc1nc(CCCCc2ccccc2)cc(=O)[nH]1`, the T/C is 93 % of control under setting [3], 89 % of control under setting [4] and 91 % of control under setting [5].
On to `O=C(Nc1cc(Cl)c(NC(=O)c2ccccc2)c(Cl)c1)c1ccccc1`, for which the T/C is 96 % of control (dose: 100.0 mg/kg/injection, schedule: Q01DX001 (ip), vehicle: saline with Tween-80); 89 % of control (dose: 200.0 mg/kg/injection, schedule: Q01DX001 (ip), vehicle: saline with Tween-80); 86 % of control (dose: 400.0 mg/kg/injection, schedule: Q01DX001 (ip), vehicle: saline with Tween-80).
For `CCCCC1(C(C)CC(C)(C)C)NC(C)(C)CC(C)O1` (stereo not given), the T/C is 104 % of control (dose: 25.0 mg/kg/injection, schedule: Q04DX002 (ip), vehicle: saline); 101 % of control (dose: 50.0 mg/kg/injection, schedule: Q04DX002 (ip), vehicle: saline); 89 % of control (dose: 100.0 mg/kg/injection, schedule: Q04DX002 (ip), vehicle: saline); 101 % of control under setting [3].
For `Cc1ccc(Sc2ccc([N+](=O)[O-])cc2)cc1`, the T/C by setting is: under setting [1], 96 % of control; under setting [3], 100 % of control; under setting [2], 102 % of control; under setting [4], 100 % of control; under setting [6], 96 % of control; under setting [5], 91 % of control.
